≈ marks a conversion by molar mass, not a printed value.
Key:
[1] = test system: Rattus norvegicus; assay: AUC in rat assessed as (S)-5-(furo[3,2-b]pyridin-2-yl)-5-((6-methoxy-1-oxoisoindolin-2-yl)methyl)imidazolidine-2,4-dione level at 10 mg/kg, po by HPLC/MS analysis; type: ADME, organism-based; conditions: in vivo
[2] = Oral bioavailability in rat at 10 mg/kg by LC/MS/MS analysis; type: ADME, organism-based; conditions: in vivo
[3] = AUC in dog at 10 mg/kg, po by LC/MS/MS analysis; type: ADME, organism-based, Canis lupus familiaris; conditions: in vivo
[4] = AUC in monkey at 10 mg/kg, po by LC/MS/MS analysis; type: ADME, organism-based, Macaca mulatta; conditions: rhesus monkey, in vivo
[5] = Oral bioavailability in monkey at 10 mg/kg by LC/MS/MS analysis; type: ADME, organism-based, Macaca mulatta; conditions: rhesus monkey, in vivo
[6] = AUC in rat at 10 mg/kg, po by LC/MS/MS analysis; type: ADME, organism-based; conditions: in vivo
[7] = Oral bioavailability in dog at 10 mg/kg by LC/MS/MS analysis; type: ADME, organism-based, Canis lupus familiaris; conditions: in vivo
[8] = AUC in rat at 100 mg/kg, po administered as single dose by LC/MS/MS analysis; type: ADME, organism-based; conditions: in vivo
[9] = Solubility of the compound at pH 6.5; type: physicochemical; conditions: buffer
[10] = AUC in rat at 500 mg/kg, po administered as single dose by LC/MS/MS analysis; type: ADME, organism-based; conditions: in vivo
[11] = AUC in rat at 10 mg/kg, po by HPLC/MS analysis; type: ADME, organism-based; conditions: in vivo
[12] = Permeability in human Caco2 cells at pH 7.4; type: ADME, cell-based; conditions: Caco-2, pH 7.4, read-out: permeability
[13] = AUC in rat at 300 mg/kg, po administered as single dose by LC/MS/MS analysis; type: ADME, organism-based; conditions: in vivo
[14] = biological target: Disintegrin and metalloproteinase domain-containing protein 17 (Homo sapiens, UniProt P78536); assay: Inhibition of TACE in human whole blood assessed as inhibition of LPS-stimulated TNFalpha production pretreated for 1 hr followed by LPS stimulation for 3.5 hrs by ELISA
Disintegrin and metalloproteinase domain-containing protein 17, sequence (P78536 whole entry, the tested form may be a part): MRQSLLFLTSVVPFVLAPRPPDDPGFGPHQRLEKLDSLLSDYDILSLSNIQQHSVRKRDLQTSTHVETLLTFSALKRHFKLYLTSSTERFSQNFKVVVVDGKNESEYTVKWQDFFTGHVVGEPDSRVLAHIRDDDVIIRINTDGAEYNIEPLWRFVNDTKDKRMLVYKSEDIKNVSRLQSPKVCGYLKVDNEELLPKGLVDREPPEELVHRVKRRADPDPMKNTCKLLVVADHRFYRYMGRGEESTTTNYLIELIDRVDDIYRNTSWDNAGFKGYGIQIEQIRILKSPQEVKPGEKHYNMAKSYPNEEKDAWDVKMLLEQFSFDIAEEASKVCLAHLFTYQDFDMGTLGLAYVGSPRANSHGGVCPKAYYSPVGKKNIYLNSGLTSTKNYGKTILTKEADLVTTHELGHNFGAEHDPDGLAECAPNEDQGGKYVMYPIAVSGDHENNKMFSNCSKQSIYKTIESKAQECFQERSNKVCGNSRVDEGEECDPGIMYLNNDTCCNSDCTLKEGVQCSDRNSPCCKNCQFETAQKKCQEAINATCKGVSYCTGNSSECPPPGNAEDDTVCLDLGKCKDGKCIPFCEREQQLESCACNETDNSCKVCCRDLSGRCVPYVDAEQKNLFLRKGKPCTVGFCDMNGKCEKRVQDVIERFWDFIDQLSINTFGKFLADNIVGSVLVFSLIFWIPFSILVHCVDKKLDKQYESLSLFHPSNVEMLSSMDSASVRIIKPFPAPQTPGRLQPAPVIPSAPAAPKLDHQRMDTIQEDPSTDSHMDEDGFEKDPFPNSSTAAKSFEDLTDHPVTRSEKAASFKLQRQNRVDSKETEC

[15] = test system: Liver; assay: Prodrug activation in human liver microsomes assessed as (S)-5-(furo[3,2-b]pyridin-2-yl)-5-((6-methoxy-1-oxoisoindolin-2-yl)methyl)imidazolidine-2,4-dione formation; type: microsome
[16] = test system: Rattus norvegicus; assay: Oral bioavailability in rat assessed as (S)-5-(furo[3,2-b]pyridin-2-yl)-5-((6-methoxy-1-oxoisoindolin-2-yl)methyl)imidazolidine-2,4-dione level at 10 mg/kg by LC/MS/MS analysis; type: ADME, organism-based; conditions: in vivo
[17] = test system: Rattus norvegicus; assay: AUC in rat assessed as (S)-5-(furo[3,2-b]pyridin-2-yl)-5-((6-methoxy-1-oxoisoindolin-2-yl)methyl)imidazolidine-2,4-dione level at 500 mg/kg, po administered as single dose by LC/MS/MS analysis; type: ADME, organism-based; conditions: in vivo
[18] = test system: Rattus norvegicus; assay: AUC in rat assessed as (S)-5-(furo[3,2-b]pyridin-2-yl)-5-((6-methoxy-1-oxoisoindolin-2-yl)methyl)imidazolidine-2,4-dione level at 300 mg/kg, po administered as single dose by LC/MS/MS analysis; type: ADME, organism-based; conditions: in vivo
[19] = test system: Liver; assay: Prodrug activation in mouse liver microsomes assessed as (S)-5-(furo[3,2-b]pyridin-2-yl)-5-((6-methoxy-1-oxoisoindolin-2-yl)methyl)imidazolidine-2,4-dione formation; type: microsome
[20] = Prodrug activation in human intestinal microsomes assessed as (S)-5-(furo[3,2-b]pyridin-2-yl)-5-((6-methoxy-1-oxoisoindolin-2-yl)methyl)imidazolidine-2,4-dione formation; parameters: species or system Intestine, Microsome
[21] = test system: Rhesus monkey; assay: Oral bioavailability in monkey assessed as (S)-5-(furo[3,2-b]pyridin-2-yl)-5-((6-methoxy-1-oxoisoindolin-2-yl)methyl)imidazolidine-2,4-dione level by LC/MS/MS analysis; type: ADME, organism-based, Macaca mulatta; conditions: in vivo
[22] = test system: Canis familiaris; assay: Oral bioavailability in dog assessed as (S)-5-(furo[3,2-b]pyridin-2-yl)-5-((6-methoxy-1-oxoisoindolin-2-yl)methyl)imidazolidine-2,4-dione level by LC/MS/MS analysis; type: ADME, organism-based, Canis lupus familiaris; conditions: in vivo
[23] = test system: Liver; assay: Prodrug activation in dog liver microsomes assessed as (S)-5-(furo[3,2-b]pyridin-2-yl)-5-((6-methoxy-1-oxoisoindolin-2-yl)methyl)imidazolidine-2,4-dione formation; type: Canis lupus familiaris, microsome
[24] = test system: Liver; assay: Prodrug activation in rat liver microsomes assessed as (S)-5-(furo[3,2-b]pyridin-2-yl)-5-((6-methoxy-1-oxoisoindolin-2-yl)methyl)imidazolidine-2,4-dione formation; type: microsome
[25] = Prodrug activation in monkey liver microsomes assessed as (S)-5-(furo[3,2-b]pyridin-2-yl)-5-((6-methoxy-1-oxoisoindolin-2-yl)methyl)imidazolidine-2,4-dione formation; type: Macaca mulatta, microsome; conditions: rhesus monkey
[26] = test system: Rattus norvegicus; assay: AUC in rat assessed as (S)-5-(furo[3,2-b]pyridin-2-yl)-5-((6-methoxy-1-oxoisoindolin-2-yl)methyl)imidazolidine-2,4-dione level at 100 mg/kg, po administered as single dose by LC/MS/MS analysis; type: ADME, organism-based; conditions: in vivo
[27] = test system: Rattus norvegicus; assay: Oral bioavailability in rat assessed as (S)-5-(5-(4-ethylpiperazin-1-yl)furo[3,2-b]pyridin-2-yl)-5-((7-fluoro-6-methoxy-1-oxoisoindolin-2-yl)methyl)imidazolidine-2,4-dione level at 10 mg/kg by LC/MS/MS analysis; type: ADME, organism-based; conditions: in vivo
[28] = test system: Rattus norvegicus; assay: AUC in rat assessed as (S)-5-(5-(4-ethylpiperazin-1-yl)furo[3,2-b]pyridin-2-yl)-5-((7-fluoro-6-methoxy-1-oxoisoindolin-2-yl)methyl)imidazolidine-2,4-dione level at 10 mg/kg, po by LC/MS/MS analysis; type: ADME, organism-based; conditions: in vivo

AUC [1]	IC50 [14]	SMILES	other results
0.9 µM·h	–	CCN1C(=O)N[C@@](CN2Cc3ccc(OC)cc3C2=O)(c2cc3ncccc3o2)C1=O	–
–	–	COc1ccc2c(c1)C(=O)N(C[C@@]1(c3cc4ncccc4o3)NC(=O)NC1=O)C2.[Na+]	bioavailability [2]: 35%; AUC [3]: 41 µM·h; AUC [4]: 5.2 µM·h; bioavailability [5]: 46%; AUC [6]: 10 µM·h; bioavailability [7]: 82%
–	287 nM	COc1ccc2c(c1)C(=O)N(C[C@@]1(c3cc4ncccc4o3)NC(=O)NC1=O)C2	AUC [8]: 120 µM·h; solubility [9]: 39 µM (≈ 15.3 µg/mL); AUC [10]: 240 µM·h; AUC [11]: 8.6 µM·h; Papp [12]: 1.2 ×10⁻⁶ cm/s; AUC [13]: 130 µM·h
4.4 µM·h	560 nM	COc1ccc2c(c1)C(=O)N(C[C@@]1(c3cc4ncccc4o3)NC(=O)N(COC(=O)c3ccccc3OC(C)=O)C1=O)C2	–
13.1 µM·h	281 nM	COc1ccc2c(c1)C(=O)N(C[C@@]1(c3cc4ncccc4o3)NC(=O)N(COC(=O)C(C)(C)C)C1=O)C2	Drug metabolism [15]: Metabolite_Detected; F [16]: 74%; solubility [9]: 175 µM (≈ 88.6 µg/mL); AUC [17]: 1450 µM·h; AUC [18]: 780 µM·h; Drug metabolism [19]: Metabolite_Detected; Drug metabolism [20]: Metabolite_Detected; F [21]: 92%; Papp [12]: > 11.6 ×10⁻⁶ cm/s; F [22]: 72%; Drug metabolism [23]: Metabolite_Detected; Drug metabolism [24]: Metabolite_Detected; Drug metabolism [25]: Metabolite_Detected; AUC [26]: 210 µM·h
0.05 µM·h	–	CCOP(=O)(OCC)OCN1C(=O)N[C@@](CN2Cc3ccc(OC)cc3C2=O)(c2cc3ncccc3o2)C1=O	–
0.6 µM·h	104 nM	COc1ccc2c(c1F)C(=O)N(C[C@@]1(c3cc4nc(N5CCNC(=O)C5)ccc4o3)NC(=O)N(COC(=O)C(C)(C)C)C1=O)C2	–
0.3 µM·h	141 nM	COc1ccc2c(c1F)C(=O)N(C[C@@]1(c3cc4nc(-c5cn[nH]c5)ccc4o3)NC(=O)N(COC(=O)C(C)(C)C)C1=O)C2	–
0.4 µM·h	178 nM	COc1ccc2c(c1F)C(=O)N(C[C@@]1(c3cc4nc(N)ccc4o3)NC(=O)N(COC(=O)C(C)(C)C)C1=O)C2	–
0.02 µM·h	–	COCCOCCOCCN1C(=O)N[C@@](CN2Cc3ccc(OC)cc3C2=O)(c2cc3ncccc3o2)C1=O	–
2.7 µM·h	339 nM	COc1ccc2c(c1)C(=O)N(C[C@@]1(c3cc4nc(N5CC[C@@H](O)C5)ccc4o3)NC(=O)N(COC(=O)C(C)(C)C)C1=O)C2	–
0.7 µM·h	176 nM	CCN1CCN(c2ccc3oc([C@]4(CN5Cc6ccc(OC)cc6C5=O)NC(=O)N(COC(=O)C(C)(C)C)C4=O)cc3n2)CC1	–
3.1 µM·h	–	COc1ccc2c(c1)C(=O)N(C[C@]1(c3cc4ncccc4o3)C(=O)N(COC(=O)C(C)(C)C)C(=O)N1COC(=O)C(C)(C)C)C2	–
0.4 µM·h	7150 nM	COc1ccc2c(c1)C(=O)N(C[C@@]1(c3cc4ncccc4o3)NC(=O)N(C(C)C)C1=O)C2	–
0.9 µM·h	–	COc1ccc2c(c1)C(=O)N(C[C@@]1(c3cc4ncccc4o3)NC(=O)N(C)C1=O)C2	–
0.2 µM·h	282 nM	COc1ccc2c(c1)C(=O)N(C[C@@]1(c3cc4nc(N5CCCNC5=O)ccc4o3)NC(=O)N(COC(=O)C(C)(C)C)C1=O)C2	–
8.6 µM·h	92 nM	COc1ccc2c(c1F)C(=O)N(C[C@@]1(c3cc4nc(N5CCN(C)CC5)ccc4o3)NC(=O)N(COC(=O)C(C)(C)C)C1=O)C2	–
20 µM·h	61 nM	CCN1CCN(c2ccc3oc([C@]4(CN5Cc6ccc(OC)c(F)c6C5=O)NC(=O)N(COC(=O)C(C)(C)C)C4=O)cc3n2)CC1	F [27]: 7%; AUC [28]: 4.7 µM·h
–	156 nM	COc1ccc2c(c1)C(=O)N(C[C@@]1(c3cc4nc(N5CCNCC5)ccc4o3)NC(=O)N(COC(=O)C(C)(C)C)C1=O)C2	–

Source: ChEMBL document CHEMBL4052764, “Development of a prodrug of hydantoin based TACE inhibitor” (Bioorg Med Chem Lett, 2017)
